# Reference: patent US20240416143A1, “PHOTONIC ANTIMICROBIAL WOUND SURFACE DRESSING” (The General Hospital Corporation, priority 2021, published 2024)
# Experiments:
# Assay in all cases: Photoinactivation of 48-hour in vitro biofilms by adjuvant/antibiotic + antimicrobial blue light
# [1] = test system: E. coli biofilm; assay type: cell-based, Escherichia coli; settings: 48 h biofilm; aBL 405 nm, 50-250 J/cm^2
# Method: (§1) The bacterial suspension was grown in a shaking incubator overnight in BHI broth. Cells were collected by centrifugation at 4,000 rpm for 5 minutes and suspended in PBS at a density of 10^6 CFU/mL. Then, the biofilms were grown for 48 hours (unless otherwise specified) in 96-well microtiter plates as described previously [Ref. 27], with a renewal of the media every 24 hours. Following the 48-hour biofilm growth, fresh 200 μL of PBS with or without menadione in different concentrations were added to the wells and the biofilms were incubated in the dark at 25° C. for 1 hour: 0, 0.5, 1, and 2 μg/mL for MRSA USA300, AF0001, IQ0064; 0, 1, 10, 30 and 50 μg/mL for P. aeruginosa PA01; and 0, 100, and 150 μg/mL for E. coli ATCC 25922. After that, the control and the menadione-treated biofilms were maintained without irradiation (“menadione/dark”). Simultaneously, the aBL was delivered to the other biofilm groups testing different power densities (50, 30, 15, and 10 mW/cm^2) while keeping the same radiant exposure of 250 J/cm^2. After the light exposure, the biofilms were carefully washed two times with PBS and 200 μL of PBS was added to each well. Then, the bacterial biofilms in each well were harvested by scratching with a sterile pipette tip and three wells of each group were pooled together in a 1.5 mL microcentrifuge tube. The total volume obtained, 600 μL (3 wells), was sonicated using a Branson 2510 Water Bath Sonicator (Marshall Scientific, LLC) for 5 minutes and the CFU was determined by 10-fold serial dilutions in PBS on BHI agar plates. CFU was counted after overnight incubation at 37° C. Experiments were performed in triplicate.
# (§2) A bacterial suspension was grown in a shaking incubator overnight in BHI broth. Cells were collected by centrifugation at 4,000 rpm for 5 minutes and suspended in PBS at a density of 10^6 CFU/mL. Then, the biofilms were grown for 48 hours in 96-well microtiter plates with a renewal of the media every 24 hours. Following the 48-hour biofilm growth, fresh 200 μL of PBS with the tetracyclines minocycline, doxycycline, and demeclocycline in different concentrations were added to the wells and the biofilms were incubated in the dark at 25° C. for 1 hour: 0, 0.25, 0.5, and 1 μg/mL for minocycline; 0, 0.5, 1, and 2 μg/mL for doxycycline; and 0, 0.5, 1, and 2 for demeclocycline. After that, the control and the tetracycline-treated biofilms were maintained without irradiation (“menadione/dark”). […] The total volume obtained, 600 μL (3 wells), was sonicated using a Branson 2510 Water Bath Sonicator (Marshall Scientific, LLC) for 5 minutes and the CFU/mL was determined by 10-fold serial dilutions in PBS on BHI agar plates. CFU was counted after overnight incubation at 37° C.
# [2] = test system: MRSA biofilm; assay type: cell-based, methicillin-resistant Staphylococcus aureus; settings: 48 h biofilm; aBL 405 nm, 50-250 J/cm^2
# Method: as §1
# A bacterial suspension was grown in a shaking incubator overnight in BHI broth. Cells were collected by centrifugation at 4,000 rpm for 5 minutes and suspended in PBS at a density of 10^6 CFU/mL. Then, the biofilms were grown for 48 hours in 96-well microtiter plates with a renewal of the media every 24 hours. Following the 48-hour biofilm growth, fresh 200 μL of PBS with the tetracyclines minocycline, doxycycline, and demeclocycline in different concentrations were added to the wells and the biofilms were incubated in the dark at 25° C. for 1 hour: 0, 0.25, 0.5, and 1 μg/mL for minocycline; 0, 0.5, 1, and 2 μg/mL for doxycycline; and 0, 0.5, 1, and 2 for demeclocycline. After that, the control and the tetracycline-treated biofilms were maintained without irradiation (“menadione/dark”). Simultaneously, the aBL (405 nm) was delivered to the other biofilm groups testing different power densities (50, 30 mW/cm^2) while keeping the radiant exposures of 50-250 J/cm^2. After the light exposure, the biofilms were carefully washed two times with PBS and 200 μL of PBS was added to each well. Then, the bacterial biofilms in each well were harvested by scratching with a sterile pipette tip and three wells of each group were pooled together in a 1.5 mL microcentrifuge tube. The total volume obtained, 600 μL (3 wells), was sonicated using a Branson 2510 Water Bath Sonicator (Marshall Scientific, LLC) for 5 minutes and the CFU/mL was determined by 10-fold serial dilutions in PBS on BHI agar plates. CFU was counted after overnight incubation at 37° C.
# [3] = test system: P. aeruginosa biofilm; assay type: cell-based, Pseudomonas aeruginosa; settings: 48 h biofilm; aBL 405 nm, 50-250 J/cm^2
# Method: The bacterial suspension was grown in a shaking incubator overnight in BHI broth. Cells were collected by centrifugation at 4,000 rpm for 5 minutes and suspended in PBS at a density of 10^6 CFU/mL. Then, the biofilms were grown for 48 hours (unless otherwise specified) in 96-well microtiter plates as described previously [Ref. 27], with a renewal of the media every 24 hours. Following the 48-hour biofilm growth, fresh 200 μL of PBS with or without menadione in different concentrations were added to the wells and the biofilms were incubated in the dark at 25° C. for 1 hour: 0, 0.5, 1, and 2 μg/mL for MRSA USA300, AF0001, IQ0064; […]; and 0, 100, and 150 μg/mL for E. coli ATCC 25922. After that, the control and the menadione-treated biofilms were maintained without irradiation (“menadione/dark”). Simultaneously, the aBL was delivered to the other biofilm groups testing different power densities (50, 30, 15, and 10 mW/cm^2) while keeping the same radiant exposure of 250 J/cm^2. After the light exposure, the biofilms were carefully washed two times with PBS and 200 μL of PBS was added to each well. Then, the bacterial biofilms in each well were harvested by scratching with a sterile pipette tip and three wells of each group were pooled together in a 1.5 mL microcentrifuge tube. The total volume obtained, 600 μL (3 wells), was sonicated using a Branson 2510 Water Bath Sonicator (Marshall Scientific, LLC) for 5 minutes and the CFU was determined by 10-fold serial dilutions in PBS on BHI agar plates. CFU was counted after overnight incubation at 37° C. Experiments were performed in triplicate.
# as §2
# [4] = test system: MRSA biofilm; assay type: cell-based, methicillin-resistant Staphylococcus aureus; settings: 48 h biofilm
SMILES,antimicrobial effect of aBL combined with tetracycline [1],antimicrobial effect of aBL combined with tetracycline [2],antimicrobial effect of aBL combined with tetracycline [3],"killing in biofilm by vancomycin combined with aBL ([4]; vancomycin 500 μg/mL + aBL 50 mW/cm^2, 250 J/cm^2) [log10 CFU/mL]",effect on biofilms of vancomycin combined with aBL ([4]; vancomycin 1 mg/mL),"improvement of aBL antimicrobial effect by vancomycin ([4]; vancomycin 5, 15 and 50 μg/mL + aBL 250 J/cm^2)"
CN(C)[C@@H]1C(O)=C(C(N)=O)C(=O)[C@@]2(O)C(O)=C3C(=O)c4c(O)ccc(Cl)c4[C@@H](O)[C@H]3C[C@@H]12 [demeclocycline],enhancement in antimicrobial effects,enhancement in antimicrobial effects,enhancement in antimicrobial effects,–,–,–
CN[C@H](CC(C)C)C(=O)N[C@H]1C(=O)N[C@@H](CC(N)=O)C(=O)N[C@H]2C(=O)N[C@H]3C(=O)N[C@H](C(=O)N[C@H](C(=O)O)c4cc(O)cc(O)c4-c4cc3ccc4O)[C@H](O)c3ccc(c(Cl)c3)Oc3cc2cc(c3O[C@@H]2O[C@H](CO)[C@@H](O)[C@H](O)[C@H]2O[C@H]2C[C@](C)(N)[C@H](O)[C@H](C)O2)Oc2ccc(cc2Cl)[C@H]1O [vancomycin],–,–,–,2.65,only minimal effects,did not show any improvement
